Source: patent US20130158362A1 (INFACARE PHARMACEUTICAL CORPORATION, priority 2011, published 2013)

System: total serum bilirubin (TSB)
Experiment: Phase 2b trial: total serum bilirubin (TSB), adjusted and unadjusted, change from baseline
Type: in vivo, human
Design: total serum bilirubin / total serum bilirubin, Delta (change from baseline) / Change from baseline of total serum bilirubin: unit not given here
Settings: for total serum bilirubin / total serum bilirubin, Delta (change from baseline): 48 hours, preliminary data; for change from baseline in adjusted TSB, LS mean difference versus placebo, MMRM / change from baseline in adjusted TSB, LS means (SEM), MMRM: observed case
Protocol: Three cohorts of subjects were recruited. This clinical study was designed to evaluate safety and efficacy parameters in each cohort.
Scheduled assessments (including TSB) occurred before treatment and at 0.75 and 2 hours (or 1.5 and 3 hours, depending on PK blood sampling assignment); 6, 12, 24, 48, and 72 hours; and 14 and 30 (except TSB) days after treatment or early termination.
The primary efficacy endpoint was the change in adjusted TSB from baseline to 48 hours after treatment. The adjusted TSB was a calculation of the percentage variance of the TSB level from the age specific threshold for PT initiation per the AAP Guidelines, i.e., an indication of the distance below the PT threshold by time.
The Secondary Efficacy Endpoints were the change from baseline in unadjusted TSB at 48 hours after treatment, change from baseline in adjusted and unadjusted TSB at various other time points after treatment, percent change from baseline in unadjusted TSB, proportion of subjects who require PT/exchange transfusion (ET), time to PT/ET, duration of PT and time to hospital discharge.
Intent-to-treat population (ITT): Defined as all subjects who were randomly assigned treatment in the clinical study, had received IMP, and had at least 1 post baseline TSB measurement during the first 48 hours after treatment. Subjects were summarized based on randomized treatment.
Analysis of Efficacy Parameters: The primary efficacy analysis applied the analysis of covariance (ANCOVA) method to determine if there was a significant difference between treatment groups in change in adjusted TSB levels from baseline to 48 hours post baseline after controlling for the effects of gestational age and adjusted baseline TSB levels. If assumptions of ANCOVA appeared to be violated, a Wilcoxon rank-sum test could be performed instead. Time-to-event variables were analyzed using the Kaplan-Meier method, and Kaplan-Meier survival curves were presented.

[1] = 1.5 mg/kg IM, 6 h, ITT, LOCF, ANCOVA
[2] = 1.5 mg/kg IM, 12 h, ITT, LOCF, ANCOVA
[3] = 1.5 mg/kg IM, 24 h, ITT, LOCF, ANCOVA
[4] = 1.5 mg/kg IM, 48 h/early termination, ITT, LOCF
[5] = 1.5 mg/kg IM, 48 h, ITT, LOCF, ANCOVA
[6] = 1.5 mg/kg IM, 72 h, ITT, LOCF, ANCOVA
[7] = 1.5 mg/kg IM, 14 days/early termination, ITT, LOCF
[8] = 1.5 mg/kg IM, 14 days/early termination, ITT, LOCF, ANCOVA
[9] = 1.5 mg/kg versus the placebo group, 48 Hours/Early termination, PP Population, ANCOVA
[10] = 1.5 mg/kg, 48 Hours/Early termination, PP Population, LOCF
[11] = 1.5 mg/kg, 6 hrs, unadjusted TSB, ITT Population

tin IV mesoporphyrin IX dichloride [Stannsoporfin]
total serum bilirubin (1.5 mg/kg IM (N = 10), treated per protocol): 10.96 ± 1.8 | adjusted TSB, Mean (SD) (1.5 mg/kg IM, 6 h, ITT, LOCF): −17.77 (13.326) % | change from baseline in adjusted TSB, Mean (SD) (1.5 mg/kg IM, 6 h, ITT, LOCF): 2.47 (7.928) % | change from baseline in adjusted TSB, Median (1.5 mg/kg IM, 6 h, ITT, LOCF): 2.80% | change from baseline in unadjusted TSB, Mean (SD) (1.5 mg/kg IM, 6 h, ITT, LOCF): 1.50 (0.861) mg/dL | change from baseline in unadjusted TSB, Median (1.5 mg/kg IM, 6 h, ITT, LOCF): 1.50 mg/dL | unadjusted TSB, Mean (SD) (1.5 mg/kg IM, 6 h, ITT, LOCF): 9.09 (2.175) mg/dL | unadjusted TSB, Median (1.5 mg/kg IM, 6 h, ITT, LOCF): 9.60 mg/dL | change from baseline in adjusted TSB, LS mean (SEM) [1]: 2.72 (2.053) % | change from baseline in adjusted TSB, LS mean difference versus placebo [1]: −1.67% | change from baseline in unadjusted TSB, LS Mean (SEM) [1]: 1.38 (0.242) mg/dL | change from baseline in unadjusted TSB, LS Mean Difference versus placebo [1]: -0.21 mg/dL | change from baseline in adjusted TSB, LS mean difference versus placebo, MMRM (1.5 mg/kg IM, 6 h, ITT): −1.44% | change from baseline in adjusted TSB, LS means (SEM), MMRM (1.5 mg/kg IM, 6 h, ITT): 2.94 (2.098) % | adjusted TSB, Mean (SD) (1.5 mg/kg IM, 12 h, ITT, LOCF): −17.41 (17.294) % | change from baseline in adjusted TSB, Mean (SD) (1.5 mg/kg IM, 12 h, ITT, LOCF): 2.83 (12.949) % | change from baseline in adjusted TSB, Median (1.5 mg/kg IM, 12 h, ITT, LOCF): 5.70% | change from baseline in unadjusted TSB, Mean (SD) (1.5 mg/kg IM, 12 h, ITT, LOCF): 2.22 (1.624) mg/dL | change from baseline in unadjusted TSB, Median (1.5 mg/kg IM, 12 h, ITT, LOCF): 2.50 mg/dL | unadjusted TSB, Mean (SD) (1.5 mg/kg IM, 12 h, ITT, LOCF): 9.82 (2.599) mg/dL | unadjusted TSB, Median (1.5 mg/kg IM, 12 h, ITT, LOCF): 10.20 mg/dL | change from baseline in adjusted TSB, LS mean (SEM) [2]: 4.54 (3.015) % | change from baseline in adjusted TSB, LS mean difference versus placebo [2]: −2.59% | change from baseline in unadjusted TSB, LS Mean (SEM) [2]: 2.21 (0.374) mg/dL | change from baseline in unadjusted TSB, LS Mean Difference versus placebo [2]: -0.39 mg/dL | change from baseline in adjusted TSB, LS mean difference versus placebo, MMRM (1.5 mg/kg IM, 12 h, ITT): −2.67% | change from baseline in adjusted TSB, LS means (SEM), MMRM (1.5 mg/kg IM, 12 h, ITT): 3.29 (2.731) % | adjusted TSB, Mean (SD) (1.5 mg/kg IM, 24 h, ITT, LOCF): −24.44 (18.927) % | change from baseline in adjusted TSB, Mean (SD) (1.5 mg/kg IM, 24 h, ITT, LOCF): −4.20 (16.064) % | change from baseline in adjusted TSB, Median (1.5 mg/kg IM, 24 h, ITT, LOCF): −4.30% | change from baseline in unadjusted TSB, Mean (SD) (1.5 mg/kg IM, 24 h, ITT, LOCF): 2.24 (2.084) mg/dL | change from baseline in unadjusted TSB, Median (1.5 mg/kg IM, 24 h, ITT, LOCF): 2.70 mg/dL | unadjusted TSB, Mean (SD) (1.5 mg/kg IM, 24 h, ITT, LOCF): 9.84 (2.656) mg/dL | unadjusted TSB, Median (1.5 mg/kg IM, 24 h, ITT, LOCF): 10.80 mg/dL | change from baseline in adjusted TSB, LS mean (SEM) [3]: −7.62 (4.320) % | change from baseline in adjusted TSB, LS mean difference versus placebo [3]: −7.53% | change from baseline in unadjusted TSB, LS Mean (SEM) [3]: 1.98 (0.549) mg/dL | change from baseline in unadjusted TSB, LS Mean Difference versus placebo [3]: -0.76 mg/dL | change from baseline in adjusted TSB, LS mean difference versus placebo, MMRM (1.5 mg/kg IM, 24 h, ITT): −3.77% | change from baseline in adjusted TSB, LS means (SEM), MMRM (1.5 mg/kg IM, 24 h, ITT): −5.33 (3.948) % | adjusted TSB, Mean (SD) [4]: −35.09 (19.198) % | adjusted TSB, Median [4]: −27.10% | change from baseline in adjusted TSB, Mean (SD) (1.5 mg/kg IM, 48 h, ITT, LOCF): −14.85 (15.442) % | change from baseline in adjusted TSB, Median (1.5 mg/kg IM, 48 h, ITT, LOCF): −12.30% | change from baseline in unadjusted TSB, Mean (SD) (1.5 mg/kg IM, 48 h, ITT, LOCF): 2.32 (2.560) mg/dL | change from baseline in unadjusted TSB, Median (1.5 mg/kg IM, 48 h, ITT, LOCF): 2.70 mg/dL | unadjusted TSB, Mean (SD) (1.5 mg/kg IM, 48 h, ITT, LOCF): 9.91 (3.116) mg/dL | unadjusted TSB, Median (1.5 mg/kg IM, 48 h, ITT, LOCF): 10.90 mg/dL | change from baseline in adjusted TSB, LS mean (SEM) (primary endpoint) [5]: −15.03 (5.273) % | change from baseline in adjusted TSB, LS mean difference versus placebo [5]: −13.45% | change from baseline in unadjusted TSB, LS Mean (SEM) [5]: 2.43 (0.842) mg/dL | change from baseline in unadjusted TSB, LS Mean Difference versus placebo [5]: -1.81 mg/dL | change from baseline in adjusted TSB, LS mean (SEM) (primary endpoint) (1.5 mg/kg IM, 48 h, ITT, LOCF, ANCOVA, listed as stannsoporfin): 15.0% | change from baseline in adjusted TSB, LS mean difference versus placebo, MMRM (1.5 mg/kg IM, 48 h, ITT): −8.26% | change from baseline in adjusted TSB, LS means (SEM), MMRM (1.5 mg/kg IM, 48 h, ITT): −14.94 (5.019) % | total serum bilirubin (1.5 mg/kg IM, intent to treat): 9.91 ± 3.1 | total serum bilirubin, Delta (change from baseline) (1.5 mg/kg IM, intent to treat): 2.32 ± 2.5 | total serum bilirubin, Delta (change from baseline) (1.5 mg/kg IM, treated per protocol): 3.44 ± 1.5 | adjusted TSB, Mean (SD) (1.5 mg/kg IM, 72 h/early termination, ITT, LOCF): −44.82 (19.254) % | change from baseline in adjusted TSB, Mean (SD) (1.5 mg/kg IM, 72 h, ITT, LOCF): −24.58 (15.743) % | change from baseline in adjusted TSB, Median (1.5 mg/kg IM, 72 h, ITT, LOCF): −22.10% | change from baseline in unadjusted TSB, Mean (SD) (1.5 mg/kg IM, 72 h, ITT, LOCF): 1.76 (2.790) mg/dL | change from baseline in unadjusted TSB, Median (1.5 mg/kg IM, 72 h, ITT, LOCF): 2.40 mg/dL | unadjusted TSB, Mean (SD) (1.5 mg/kg IM, 72 h, ITT, LOCF): 9.35 (3.409) mg/dL | unadjusted TSB, Median (1.5 mg/kg IM, 72 h, ITT, LOCF): 10.60 mg/dL | change from baseline in adjusted TSB, LS mean (SEM) [6]: −21.94 (6.232) % | change from baseline in adjusted TSB, LS mean difference versus placebo [6]: −17.19% | change from baseline in unadjusted TSB, LS Mean (SEM) [6]: 2.43 (1.077) mg/dL | change from baseline in unadjusted TSB, LS Mean Difference versus placebo [6]: -2.52 mg/dL | change from baseline in unadjusted TSB, Mean (SD) [7]: −4.08 (2.322) mg/dL | change from baseline in unadjusted TSB, Median [7]: -4.00 mg/dL | unadjusted TSB, Mean (SD) [7]: 3.52 (2.751) mg/dL | unadjusted TSB, Median [7]: 2.80 mg/dL | change from baseline in unadjusted TSB, LS Mean (SEM) [8]: −4.04 (1.258) mg/dL | change from baseline in unadjusted TSB, LS Mean Difference versus placebo [8]: -1.74 mg/dL | 48 Hours/Early termination change from baseline in unadjusted TSB, LS mean difference [9]: -0.97 mg/dL | P-value of LS mean difference, change from baseline in unadjusted TSB [9]: 0.338 | 48 Hours/Early termination change from baseline in unadjusted TSB, Max [10]: 5.2 mg/dL | 48 Hours/Early termination change from baseline in unadjusted TSB, Mean (SD) [10]: 3.44 (1.458) mg/dL | 48 Hours/Early termination change from baseline in unadjusted TSB, Median [10]: 3.40 mg/dL | 48 Hours/Early termination change from baseline in unadjusted TSB, Min [10]: 0.7 mg/dL | 48 Hours/Early termination unadjusted TSB, Max [10]: 12.8 mg/dL | 48 Hours/Early termination unadjusted TSB, Mean (SD) [10]: 10.96 (1.842) mg/dL | 48 Hours/Early termination unadjusted TSB, Median [10]: 11.35 mg/dL | 48 Hours/Early termination unadjusted TSB, Min [10]: 6.8 mg/dL | 48 Hours/Early termination change from baseline in unadjusted TSB, LS mean (SEM) (1.5 mg/kg, 48 Hours/Early termination, PP Population, LOCF, ANCOVA): 2.96 (0.868) mg/dL | 6 hrs Percent Change from Baseline in TSB, Max [11]: 42.0% | 6 hrs Percent Change from Baseline in TSB, Mean (SD) [11]: 20.13 (12.268) % | 6 hrs Percent Change from Baseline in TSB, Min [11]: −1.7% | 6 hrs TSB, Max [11]: 14.1 mg/dL
